# Data from publication PMC10518257 (Nature Cancer, 2023).
# Values joined by “and” are separate entries in the source; they are usually repeats but may differ in a detail not shown here. Equal values may be shown once. Read-outs that look alike come from different tables or passages of the source.
# Key:
# [1] = biological target: T1, panel of 255 (vepafestinib) or 256 (all other inhibitors) recombinant kinases (Homo sapiens, UniProt P07948); test: Kinase selectivity profiling at a single concentration (Carna Biosciences); type: biochemical; settings: 23 nM
# T1 construct: purchased Carna Biosciences
# [2] = biological target: T2, panel of 255 (vepafestinib) or 256 (all other inhibitors) recombinant kinases (Homo sapiens, UniProt P17252); test: as above; type: biochemical; settings: 23 nM
# T2 construct: purchased Carna Biosciences
# [3] = biological target: T3, panel of 255 (vepafestinib) or 256 (all other inhibitors) recombinant kinases (Homo sapiens, UniProt P42684); test: as above; type: biochemical; settings: 23 nM
# T3 construct: purchased Carna Biosciences
# [4] = biological target: T4, panel of 255 (vepafestinib) or 256 (all other inhibitors) recombinant kinases (Homo sapiens, UniProt Q13177); test: as above; type: biochemical; settings: 23 nM
# T4 construct: purchased Carna Biosciences
# [5] = biological target: T5, panel of 255 (vepafestinib) or 256 (all other inhibitors) recombinant kinases (Homo sapiens, UniProt Q15303); test: as above; type: biochemical; settings: 23 nM
# T5 construct: purchased Carna Biosciences
# [6] = biological target: T6, panel of 255 (vepafestinib) or 256 (all other inhibitors) recombinant kinases (Homo sapiens, UniProt Q9P286); test: as above; type: biochemical; settings: 23 nM
# T6 construct: purchased Carna Biosciences
# [7] = biological target: T7, panel of 255 (vepafestinib) or 256 (all other inhibitors) recombinant kinases (Homo sapiens, UniProt Q9Y6E0); test: as above; type: biochemical; settings: 23 nM
# T7 construct: purchased Carna Biosciences
# [8] = Pharmacokinetic analysis of vepafestinib in rats (microdialysis PFC, CSF, plasma); type: in vivo, male Han Wistar rats
# T6 sequence (Q9P286 whole entry): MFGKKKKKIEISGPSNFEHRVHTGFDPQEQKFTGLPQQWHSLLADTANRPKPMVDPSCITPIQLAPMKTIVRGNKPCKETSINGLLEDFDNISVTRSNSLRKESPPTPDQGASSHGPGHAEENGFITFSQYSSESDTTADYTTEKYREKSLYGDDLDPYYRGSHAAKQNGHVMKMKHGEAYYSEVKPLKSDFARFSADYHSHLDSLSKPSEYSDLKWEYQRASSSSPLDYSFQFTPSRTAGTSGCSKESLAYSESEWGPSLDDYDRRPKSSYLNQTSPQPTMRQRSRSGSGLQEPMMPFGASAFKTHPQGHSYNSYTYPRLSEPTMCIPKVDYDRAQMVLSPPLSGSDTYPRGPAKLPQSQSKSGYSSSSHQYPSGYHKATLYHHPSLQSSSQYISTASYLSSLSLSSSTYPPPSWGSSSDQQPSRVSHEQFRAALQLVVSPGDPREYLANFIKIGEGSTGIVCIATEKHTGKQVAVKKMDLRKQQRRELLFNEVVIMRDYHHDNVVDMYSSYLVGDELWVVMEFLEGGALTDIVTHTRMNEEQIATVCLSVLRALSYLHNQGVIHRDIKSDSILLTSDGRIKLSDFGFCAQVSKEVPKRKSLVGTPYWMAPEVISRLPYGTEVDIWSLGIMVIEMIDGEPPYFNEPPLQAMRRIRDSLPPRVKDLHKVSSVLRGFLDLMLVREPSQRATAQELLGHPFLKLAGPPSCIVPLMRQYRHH
# T7 sequence (Q9Y6E0 whole entry): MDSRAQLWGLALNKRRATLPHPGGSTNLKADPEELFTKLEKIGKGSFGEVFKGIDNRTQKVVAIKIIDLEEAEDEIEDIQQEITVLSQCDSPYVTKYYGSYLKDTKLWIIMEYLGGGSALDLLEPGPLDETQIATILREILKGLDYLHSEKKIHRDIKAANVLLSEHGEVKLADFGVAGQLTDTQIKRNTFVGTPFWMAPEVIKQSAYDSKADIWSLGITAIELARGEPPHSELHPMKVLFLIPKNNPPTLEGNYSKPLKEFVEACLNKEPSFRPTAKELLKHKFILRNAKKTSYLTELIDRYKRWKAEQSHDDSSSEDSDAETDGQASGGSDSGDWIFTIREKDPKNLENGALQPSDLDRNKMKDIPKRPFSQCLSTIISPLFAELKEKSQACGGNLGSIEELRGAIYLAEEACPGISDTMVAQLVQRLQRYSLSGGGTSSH
# T4 sequence (Q13177 whole entry): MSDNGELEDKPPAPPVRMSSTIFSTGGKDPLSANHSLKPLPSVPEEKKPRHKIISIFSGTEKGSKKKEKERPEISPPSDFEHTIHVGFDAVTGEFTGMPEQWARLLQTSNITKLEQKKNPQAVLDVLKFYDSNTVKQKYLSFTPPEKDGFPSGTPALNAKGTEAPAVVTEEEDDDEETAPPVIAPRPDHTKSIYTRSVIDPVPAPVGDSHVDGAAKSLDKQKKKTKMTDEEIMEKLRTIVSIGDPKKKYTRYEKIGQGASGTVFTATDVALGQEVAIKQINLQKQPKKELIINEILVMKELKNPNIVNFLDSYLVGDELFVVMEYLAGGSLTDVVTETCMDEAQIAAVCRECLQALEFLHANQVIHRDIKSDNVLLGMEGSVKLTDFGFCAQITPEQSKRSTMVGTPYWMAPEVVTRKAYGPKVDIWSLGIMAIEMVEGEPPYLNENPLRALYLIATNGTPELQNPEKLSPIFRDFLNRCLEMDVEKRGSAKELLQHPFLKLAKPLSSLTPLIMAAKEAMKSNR
# T1 sequence (P07948 whole entry): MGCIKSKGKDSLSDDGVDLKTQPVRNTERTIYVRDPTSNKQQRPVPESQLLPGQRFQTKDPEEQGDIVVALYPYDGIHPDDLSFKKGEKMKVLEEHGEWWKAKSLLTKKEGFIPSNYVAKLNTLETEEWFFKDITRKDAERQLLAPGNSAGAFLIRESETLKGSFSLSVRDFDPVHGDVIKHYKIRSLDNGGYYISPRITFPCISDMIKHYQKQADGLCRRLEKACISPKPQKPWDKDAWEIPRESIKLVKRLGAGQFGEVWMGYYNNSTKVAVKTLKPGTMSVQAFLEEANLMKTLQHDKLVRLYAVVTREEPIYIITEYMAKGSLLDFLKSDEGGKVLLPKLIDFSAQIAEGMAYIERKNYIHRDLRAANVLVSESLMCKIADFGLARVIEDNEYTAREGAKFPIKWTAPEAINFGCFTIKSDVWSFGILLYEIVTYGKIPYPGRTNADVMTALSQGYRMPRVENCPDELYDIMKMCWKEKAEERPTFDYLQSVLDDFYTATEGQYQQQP
# T3 sequence (P42684 whole entry): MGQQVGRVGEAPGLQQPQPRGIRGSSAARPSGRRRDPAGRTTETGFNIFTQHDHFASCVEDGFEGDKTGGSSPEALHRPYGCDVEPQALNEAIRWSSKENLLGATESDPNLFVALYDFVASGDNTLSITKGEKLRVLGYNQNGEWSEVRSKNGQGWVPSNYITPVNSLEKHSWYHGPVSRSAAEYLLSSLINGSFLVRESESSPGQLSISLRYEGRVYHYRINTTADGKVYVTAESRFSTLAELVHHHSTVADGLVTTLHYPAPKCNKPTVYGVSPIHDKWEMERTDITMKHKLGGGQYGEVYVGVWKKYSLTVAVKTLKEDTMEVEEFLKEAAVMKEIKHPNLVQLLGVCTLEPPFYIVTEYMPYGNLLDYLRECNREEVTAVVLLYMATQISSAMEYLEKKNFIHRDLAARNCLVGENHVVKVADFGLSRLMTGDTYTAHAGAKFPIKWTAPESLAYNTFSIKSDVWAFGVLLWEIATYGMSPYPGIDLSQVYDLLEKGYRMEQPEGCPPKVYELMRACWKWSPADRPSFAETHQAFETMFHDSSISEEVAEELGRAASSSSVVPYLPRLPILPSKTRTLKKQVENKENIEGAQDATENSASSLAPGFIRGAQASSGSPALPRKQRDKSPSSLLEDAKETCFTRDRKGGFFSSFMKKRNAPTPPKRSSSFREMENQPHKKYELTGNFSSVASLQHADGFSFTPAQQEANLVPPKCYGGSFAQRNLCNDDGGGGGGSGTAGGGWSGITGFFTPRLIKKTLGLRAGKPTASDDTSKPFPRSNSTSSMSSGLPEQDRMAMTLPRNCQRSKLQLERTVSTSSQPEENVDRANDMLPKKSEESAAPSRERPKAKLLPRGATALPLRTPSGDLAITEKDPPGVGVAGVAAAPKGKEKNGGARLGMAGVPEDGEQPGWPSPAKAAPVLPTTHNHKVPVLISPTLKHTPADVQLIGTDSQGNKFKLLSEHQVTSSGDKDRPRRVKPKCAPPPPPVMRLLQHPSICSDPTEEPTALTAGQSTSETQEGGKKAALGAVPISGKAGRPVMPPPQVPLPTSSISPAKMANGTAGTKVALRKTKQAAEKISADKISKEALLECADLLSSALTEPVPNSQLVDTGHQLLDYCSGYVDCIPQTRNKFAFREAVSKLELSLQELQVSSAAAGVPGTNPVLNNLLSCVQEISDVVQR
compound,measurement,setting,value
"COCc1ccc(NC(=O)c2c(C#CCN3CCOCC3)n(C3(C)CC3)c3ncnc(N)c23)cc1 [Vepafestinib, 4-amino-N-[4-(methoxymethyl)phenyl]-7-(1-methylcyclopropyl)-6-[3-(morpholin-4-yl)prop-1-yn-1-yl]-7H-pyrrolo[2,3-d]pyrimidine-5-carboxamide]",% Inhibiton LYNa,[1],6.7%
same,% Inhibiton PKCα,[2],9.1%
same,% Inhibiton ARG,[3],7.3%
same,% Inhibiton PAK2,[4],19%
same,% Inhibiton HER4,[5],9.5%
same,% Inhibiton PAK5,[6],10.8%
same,% Inhibiton MST3,[7],13.4%
same,"Concentration in Rats, Plasma (free fraction)","[8]; 3 mg/kg, 30 min, individual rats",0.411 µM and 0.29 µM and 0.384 µM and 0.193 µM
same,"Concentration in Rats, Plasma (free fraction)","[8]; 3 mg/kg, 60 min, individual rats",0.248 µM and 0.212 µM and 0.391 µM and 0.168 µM
same,concentration at 480 min,"[8]; 3 mg/kg, 60 min, individual rats, read-out: Concentration in Rats, Cerebrospinal fluid",0.109 µM
same,concentration at 120 min,"[8]; 3 mg/kg, 60 min, individual rats, read-out: Concentration in Rats, Plasma (total)",1.62 µM and 1.39 µM and 2.56 µM and 1.1 µM
same,"Concentration in Rats, Plasma (free fraction)","[8]; 3 mg/kg, 120 min, individual rats",0.129 µM and 0.143 µM and 0.163 µM and 0.115 µM
same,"Concentration in Rats, Plasma (free fraction)","[8]; 3 mg/kg, 180 min, individual rats",0.068 µM and 0.12 µM and 0.0978 µM and 0.063 µM
same,"Concentration in Rats, Plasma (free fraction)","[8]; 3 mg/kg, 300 min, individual rats",0.0173 µM and 0.0281 µM and 0.0507 µM and 0.0327 µM
same,"Concentration in Rats, Plasma (free fraction)","[8]; 3 mg/kg, 360 min, individual rats",0.00857 µM and 0.0137 µM and 0.0365 µM
same,"Concentration in Rats, Plasma (free fraction)","[8]; 3 mg/kg, 480 min, individual rats",0.0243 µM
same,"Concentration in Rats, Plasma (free fraction)","[8]; 10 mg/kg, 30 min, individual rats",1.323 µM and 1.543 µM and 1.071 µM and 1.204 µM
same,"Concentration in Rats, Plasma (free fraction)","[8]; 10 mg/kg, 60 min, individual rats",1.016 µM and 1.083 µM and 0.66 µM and 0.921 µM
same,"Concentration in Rats, Plasma (free fraction)","[8]; 10 mg/kg, 120 min, individual rats",0.503 µM and 0.68 µM and 0.665 µM and 0.714 µM
same,"Concentration in Rats, Plasma (free fraction)","[8]; 10 mg/kg, 180 min, individual rats",0.272 µM and 0.513 µM and 0.529 µM and 0.374 µM
same,"Concentration in Rats, Plasma (free fraction)","[8]; 10 mg/kg, 240 min, individual rats",0.133 µM and 0.237 µM and 0.243 µM and 0.244 µM
same,"Concentration in Rats, Plasma (free fraction)","[8]; 10 mg/kg, 300 min, individual rats",0.0536 µM and 0.0905 µM and 0.129 µM and 0.102 µM
same,"Concentration in Rats, Plasma (free fraction)","[8]; 10 mg/kg, 360 min, individual rats",0.0304 µM and 0.0538 µM and 0.0633 µM and 0.0536 µM
same,"Concentration in Rats, Plasma (free fraction)","[8]; 10 mg/kg, 480 min, individual rats",0.0156 µM and 0.0255 µM and 0.0177 µM
same,"Concentration in Rats, Plasma (free fraction)","[8]; 50 mg/kg, 30 min, individual rats",2.31 µM and 2.399 µM and 2.002 µM and 1.803 µM
same,"Concentration in Rats, Plasma (free fraction)","[8]; 50 mg/kg, 60 min, individual rats",1.589 µM and 1.818 µM and 1.742 µM and 1.803 µM
same,"Concentration in Rats, Plasma (free fraction)","[8]; 50 mg/kg, 120 min, individual rats",1.415 µM and 2.506 µM and 1.273 µM and 2.017 µM
same,"Concentration in Rats, Plasma (free fraction)","[8]; 50 mg/kg, 180 min, individual rats",0.947 µM and 2.2 µM and 0.964 µM and 1.305 µM
same,"Concentration in Rats, Plasma (free fraction)","[8]; 50 mg/kg, 240 min, individual rats",0.591 µM and 2.093 µM and 1.166 µM and 1.108 µM
same,"Concentration in Rats, Plasma (free fraction)","[8]; 50 mg/kg, 300 min, individual rats",0.74 µM and 1.435 µM and 0.817 µM and 0.694 µM
same,"Concentration in Rats, Plasma (free fraction)","[8]; 50 mg/kg, 360 min, individual rats",0.891 µM and 1.181 µM and 0.821 µM and 0.4 µM
same,"Concentration in Rats, Plasma (free fraction)","[8]; 50 mg/kg, 480 min, individual rats",0.0205 µM and 0.68 µM and 0.743 µM and 0.651 µM
same,concentration at 120 min,"[8]; male, Han Wistar, rat, cerebrospinal fluid, oral, 3 mg/kg, 120 min, individual rats, read-out: Concentration in Rats, Cerebrospinal fluid",0.0674 µM
same,concentration at 240 min,"[8]; male, Han Wistar, rat, cerebrospinal fluid, oral, 3 mg/kg, 240 min, individual rats, read-out: Concentration in Rats, Cerebrospinal fluid",0.0288 µM
same,concentration at 480 min,"[8]; male, Han Wistar, rat, cerebrospinal fluid, oral, 3 mg/kg, 480 min, individual rats, read-out: Concentration in Rats, Cerebrospinal fluid",0.00878 µM
same,concentration at 30 min,"[8]; male, Han Wistar, rat, cerebrospinal fluid, oral, 10 mg/kg, 30 min, individual rats, read-out: Concentration in Rats, Cerebrospinal fluid",0.961 µM
same,concentration at 120 min,"[8]; male, Han Wistar, rat, cerebrospinal fluid, oral, 10 mg/kg, 120 min, individual rats, read-out: Concentration in Rats, Cerebrospinal fluid",0.585 µM
same,concentration at 480 min,"[8]; male, Han Wistar, rat, cerebrospinal fluid, oral, 50 mg/kg, rats, 50 mg/kg, 480 min, individual animals, read-out: Concentration in Cerebrospinal fluid",0.43 µM
same,concentration at 480 min,"[8]; male, Han Wistar, rat, cerebrospinal fluid, oral, 50 mg/kg, 480 min, individual rats, read-out: Concentration in Rats, Cerebrospinal fluid",0.486 µM
same,concentration at 120 min,"[8]; male, Han Wistar, rat, plasma (total), oral, 3 mg/kg, 120 min, individual rats, read-out: Concentration in Rats, Plasma (total)",0.845 µM
same,concentration at 180 min,"[8]; male, Han Wistar, rat, plasma (total), oral, 3 mg/kg, 180 min, individual rats, read-out: Concentration in Rats, Plasma (total)",0.445 µM
same,concentration at 480 min,"[8]; male, Han Wistar, rat, plasma (total), oral, 3 mg/kg, 480 min, individual rats, read-out: Concentration in Rats, Plasma (total)",0.159 µM
same,concentration at 30 min,"[8]; male, Han Wistar, rat, plasma (total), oral, 10 mg/kg, 30 min, individual rats, read-out: Concentration in Rats, Plasma (total)",8.66 µM
same,concentration at 60 min,"[8]; male, Han Wistar, rat, plasma (total), oral, 10 mg/kg, 60 min, individual rats, read-out: Concentration in Rats, Plasma (total)",6.65 µM
same,concentration at 120 min,"[8]; male, Han Wistar, rat, plasma (total), oral, 10 mg/kg, 120 min, individual rats, read-out: Concentration in Rats, Plasma (total)",3.29 µM
